Source: patent US20140342065A1 (priority 2012, published 2014)

Columns and labels:
[1] = tested on: bacteria or yeast; conditions: exposed one day (NaHS 50 mg, gas 40 ppm or saturated water 0.04% 1 ml), then sealed two months at room temperature
Text: Control counterparts were also kept at room temperature within a closed environment. Then, the plates were removed from these environments, sealed and placed at room temperature for two months.

[2] = tested on: Mollusks, bees, grasshopper, drosophila, butterflies, and flies; conditions: in vivo
Description: First, it can be used in a closed space for the growth of crop and to protect the crop by its insecticidal, fungicidal, rodenticidal, pediculicidal, and biocidal actions.

[3] = Release of H2S gas from aqueous NaHS solutions; format: physicochemical; conditions: aqueous NaHS solutions 0.25-3.5 mmol/L
Description: (§1) Aqueous NaHS solutions (0.25-3.5 mmol/L) could release H2S gas (10^−12˜10^−10 mol/L). H2S rapidly, reached to the highest levels within several minutes and maintained a constant concentration. […] The NaHS solution was renewed every 48 or 72 hours. The NaHS solution was placed in a sealed container separated by a partition board with pores on it. The fresh cut vegetables including Broccoli, Lettuce, Lotus Root, Yam, Pumpkin, Sweet Potato, Potato, etc, and the fresh cut fruits Apple, Pear, Kiwi Fruit, Tomato, Hami Melon, and Peach were placed above the board, while the NaHS solution was placed under the board. Therefore, the fresh cut vegetables and fruits were fumigated with H2S gas released from NaHS in the solution.

[4] = tested on: freshly cut pears and peaches; assay: NaHS solution fumigation of freshly cut pears and peaches
Description: as §1
The control of freshly cut pears and peaches that were treated with water (0.0 mml/L NaHS), lost their edibility on day 2, while the shelf life of freshly cut pear and peach treated with 0.5 mmol/L-2.0 mmol/L NaHS solution was prolonged by 1-2 days. […] The control freshly cut pears and peaches treated with 0.0 mmol/L NaHS solution underwent rot process (due to physiological senescence and microbe infection) in 2.5 days, and the moldy rate reached 100% in 4 days.

[5] = tested on: freshly cut chips of cantaloupe; assay: NaHS solution fumigation of freshly cut chips of cantaloupe
Description: as §1
The control freshly cut chips of cantaloupe that were treated with water (0.0 mmol/L NaHS) lost their color and became brown, while the freshness of freshly cut chips of cantaloupe treated with 0.05 mmol/L-1.5 mmol/L NaHS solution was prolonged by 8-12 hours.

[6] = tested on: freshly cut Kiwi fruits; assay: NaHS solution fumigation of freshly cut Kiwi fruits
Description: as §1
The control freshly cut Kiwi fruits that were treated with water (0.0 mmol/L NaHS) lost their color and their edibility completely on day 4, while the shelf life of freshly cut Kiwi fruits treated with 0.25 mmol/L-1.75 mmol/L NaHS solution was prolonged by 2-3 days. […] The control freshly cut Kiwi fruits treated with 0.0 mmol/L NaHS solution underwent rot process in 5 days, and the rot rate reached 100% in 7 days.

Q: What does the source list for `S` [NaHS, sodium hydrosulfide]?
A: growth of bacteria and yeast on agar plates [1]: no growth was evident; death of pests [2]: die within seconds; H2S gas released [3]: 10^−12˜10^−10 mol/L; shelf life prolonged by ([4]; 0.5 mmol/L-2.0 mmol/L NaHS, control lost edibility on day 2): 1 to 2 days; shelf life prolonged by ([4]; 1.5 mmol/L NaHS (best)): 2 days; day until which micro-organisms did not appear ([4]; 1.5-2.0 mmol/L NaHS): 5 days; moldy rate ([4]; 1.5-2.0 mmol/L NaHS, after 10 days, control 100% in 4 days): 80%; freshness prolonged by ([5]; 0.05 mmol/L-1.5 mmol/L NaHS): 8 to 12 h; freshness prolonged by ([5]; 0.9 mmol/L-1.0 mmol/L NaHS (best)): 12 h; shelf life prolonged by ([6]; 0.25 mmol/L-1.75 mmol/L NaHS, control lost edibility on day 4): 2 to 3 days; shelf life prolonged by ([6]; 1.5 mmol/L NaHS (best)): 2 days; day until which micro-organisms did not appear ([6]; 1.5 mmol/L NaHS, control rot rate 100% in 7 days): 10 days
